This note sets out measurements from patent US5556856A, “Phthalazinone derivatives that modulate multi-drug resistance” (Asta Medica Aktiengesellschaft, priority 1992, dated 1996).

Assay [1] relates to acetic acid induced writhing. Briefly: Acetic acid induced Writhing Test (IWRAC). As to conditions: mouse; for Analgesic effect in test model IWRAC: 6 mg/kg p.o.; for ED50: po, read-out: Analgesic effect in test model IWRAC, ED50. It counts as in vivo. Here is the method: (§1) The peripheral analgesic effect was shown in the model of the Writhing Test (IWRAC) and in the model of the Randall-Selitto inflammation pain test (IRS).
^a IWRAC = Acetic acid induced Writhing Test. Data in % refer to a
dose of 6 mg/kg p.o. (mouse). The ED50 values are given in mg/kg.
On the technique in general: An intraperitoneal irritant provokes the stretching counted in writhing tests.

For the next assay, the system named is inflammation pain. Briefly: Randall-Selitto inflammation pain test (IRS). It counts as in vivo. The settings on record: rat; for Analgesic effect in test model IRS: 10 mg/kg p.o.; for ED50: po, read-out: Analgesic effect in test model IRS, ED50. Here is the method:
as §1
^b IRS = RandallSelitto inflammation pain test. Data in % refer to a
dose or 10 mg/kg p.o. (rat). The ED50 values are given in mg/kg.

In the next assay the test system is right anterior free wall. Kind of assay: Antiarrhythmic properties in rabbit cardiac preparations, right anterior free wall. As to conditions: Oryctolagus cuniculus, 1 h, 60 minutes, read-out: Electrical threshold, change in percentage from control. Here is the method: (§2) The antiarrhythmic effect was tested by the following experimental procedure:
(§3) Twenty young rabbits of mixed breed and either sex, weighing 1475±75 g (mean±S.E.), were used. The animals were sacrificed by a blow on the head, their heart was isolated and the left atrium, a strip of the anterior free wall of the right ventricle, as well as one of the papillary muscles of the right ventricle were dissected and pinned to the bottom (`non-toxic` rubber) of a thermostated organic bath, containing modified Locke's solution. The composition of the solution was the following: Na^+ 140; K^+ 5.63; Ca^2+ 2.17; glucose 11, HCO3 25; CL 125; total 309 mmol/l, pH 7.4. Continuous stirring and oxygenation of the solution were maintained by the bubbling of a mixture of 95% O2 and 5% CO2. The temperature of the organ bath was kept at 32° C. […] During the experiments the following electro-physiological parameters were determined: electrical threshold, effective refractory period and conduction time. The effective refractory period (i.e. the least interval between two successive electro-mechanical responses) was measured by applying a threefold-threshold test stimulus (1 msec, square waves) delivered from a DISA Multistim at various times following the pacing impulse. Conduction time was measured on an oscilloscope (Tektronis 2230) as a distance (i.e. time) between the artifact of the pacing stimulus and the appearance of the subsequent surface potential recorded via bipolar platinum electrodes. The auxotonically measured contractility (maximum contractile force) was also followed (papillary muscle, left atrium).
(§4) After a 60 min equilibrium in the control solution, the preparations were exposed to 10 μM of the test substance for a period of 60 min. Except for the effect on the effective refractory periods (determined at the 30th and 60th min only) all the other parameters were measured in every 15th min, i.e. four times in the presence of a given concentration of the compound examined. […]

In assay [2] the test system is right ventricular papillary muscle. Briefly: Antiarrhythmic properties in rabbit cardiac preparations, right ventricular papillary muscle. The settings on record: Oryctolagus cuniculus, 1 h, 60 minutes; for inhibition at 10 µM: papillary muscle, read-out: Contractility, change in percentage from control; for activation at 10 µM: right ventricular papillary muscle. Here is the method: as §2
(§5) Twenty young rabbits of mixed breed and either sex, weighing 1475±75 g (mean±S.E.), were used. The animals were sacrificed by a blow on the head, their heart was isolated and the left atrium, a strip of the anterior free wall of the right ventricle, as well as one of the papillary muscles of the right ventricle were dissected and pinned to the bottom (`non-toxic` rubber) of a thermostated organic bath, containing modified Locke's solution. The composition of the solution was the following: Na^+ 140; K^+ 5.63; Ca^2+ 2.17; glucose 11, HCO3 25; CL 125; total 309 mmol/l, pH 7.4. Continuous stirring and oxygenation of the solution were maintained by the bubbling of a mixture of 95% O2 and 5% CO2. The temperature of the organ bath was kept at 32° C. The isolated left atrium, papillary muscle and the strip prepared from the anterior free wall of the right ventricle were electrically paced by rectangular electric impulses of 1 msec duration, twice-threshold intensity and a 100 per min frequency. During the experiments the following electro-physiological parameters were determined: electrical threshold, effective refractory period and conduction time. The effective refractory period (i.e. the least interval between two successive electro-mechanical responses) was measured by applying a threefold-threshold test stimulus (1 msec, square waves) delivered from a DISA Multistim at various times following the pacing impulse. Conduction time was measured on an oscilloscope (Tektronis 2230) as a distance (i.e. time) between the artifact of the pacing stimulus and the appearance of the subsequent surface potential recorded via bipolar platinum electrodes. The auxotonically measured contractility (maximum contractile force) was also followed (papillary muscle, left atrium).
(§6) After a 60 min equilibrium in the control solution, the preparations were exposed to 10 μM of the test substance for a period of 60 min. Except for the effect on the effective refractory periods (determined at the 30th and 60th min only) all the other parameters were measured in every 15th min, i.e. four times in the presence of a given concentration of the compound examined.
(§7) The values given in the Tables and Figures are means ±S.E. The effect of compounds on the various parameters was estimated statistically by the t-test (Student-Welch); P values<0.05 were regarded as significant.
(§8) Antiarrhythmic properties in rabbit cardiac
(§9) incubation time with drugs 60 minutes
(§10) change in percentage from control

The next assay has as its system left atrial myocardium. Kind of assay: Antiarrhythmic properties in rabbit cardiac preparations, left atrial myocardium. The settings on record: Oryctolagus cuniculus, 1 h, 60 minutes; for activation at 10 µM: left atrial myocardium; for inhibition at 10 µM: left auricle, read-out: Contractility, change in percentage from control. On the procedure: as §2, §5, §6, §7, §8, §9, §10

The test system of assay [3] is right anteior papillary muscle. Briefly: Antiarrhythmic properties in rabbit cardiac preparations, right anterior papillary muscle (conduction time). As to conditions: Oryctolagus cuniculus, 1 h, 60 minutes, read-out: Conduction time, change in percentage from control. On the procedure: as §2, §3, §4
The mark [4] stands for this setting: read-out: Effective refractory period, change in percentage from control.
The mark [5] stands for this setting: read-out: Electrical threshold, change in percentage from control.
[6] abbreviates: read-out: Conduction time, change in percentage from control.

Read-outs that look alike come from different tables or passages of the source.

With `O=c1c2ccccc2c(Cc2ccc(Cl)cc2)nn1C1CCCN(CCc2ccccc2)CC1` (centres unmarked), the “Analgesic effect in test model IWRAC” value in assay [1] is 91%. Also, in the assay with inflammation pain, the “Analgesic effect in test model IRS” value came to 77%.

In the case of `O=c1c2ccccc2c(Cc2ccc(F)cc2)nn1C1CCCN(Cc2ccccc2)CC1` (centres unmarked), the “Analgesic effect in test model IWRAC” value in assay [1] came to 75%. Further, the “Analgesic effect in test model IRS” value with inflammation pain is given as 53%.

For the compound `O=c1c2ccccc2c(Cc2ccc(F)cc2)nn1C1CCCN(CCc2ccccc2)CC1` (centres unmarked), the ED50 (commonly the dose that gives a 50% effect, or the effect in half of the subjects) in assay [1] came out at 2.7 mg/kg. Further, the “Analgesic effect in test model IRS” value in the assay with inflammation pain turned out to be 54%.

For `O=c1c2ccccc2c(Cc2ccc(F)cc2)nn1C1CCN(CCCc2ccccc2)CC1`, the “Analgesic effect in test model IWRAC” value in assay [1] is listed as 77%. In the assay on inflammation pain, the “Analgesic effect in test model IRS” value is recorded as 67%.

With `O=c1c2ccccc2c(Cc2ccc(F)cc2)nn1C1CCN(CCCc2ccc(F)cc2)CC1`, the “Analgesic effect in test model IWRAC” value in assay [1] is given as 67%. For the same compound, in the assay with inflammation pain, the “Analgesic effect in test model IRS” value is on record as 52%.

Regarding `CCOC(=O)CCN1CCC(n2nc(Cc3ccc(Cl)cc3)c3ccccc3c2=O)CC1`, the “Analgesic effect in test model IWRAC” value in assay [1] is reported as 67%. In the assay on inflammation pain, the “Analgesic effect in test model IRS” value worked out at 50%.

In the case of `O=c1c2ccccc2c(Cc2ccccc2Cl)nn1C1CCCN(CCc2ccccc2)CC1` (centres unmarked), the results for the ED50 (in assay [1]; in the assay on inflammation pain) were 4.1 mg/kg and 4.7 mg/kg, respectively.

With `O=c1c2ccccc2c(Cc2ccco2)nn1C1CCCN(CCc2ccccc2)CC1` (centres unmarked), in the assay on inflammation pain, the “Analgesic effect in test model IRS” value turned out to be 40%.

In the case of `O=c1c2ccccc2c(Cc2ccc(F)cc2)nn1C1CCCN(CCc2ccccc2)CC1` (racemic) [D-18024], the activation at 10 µM in the assay with right anterior free wall is -1%; in assay [2] (setting [4]), 7%; in assay [2] (setting [5]) it was 29%; in the assay with left atrial myocardium (setting [6]), 91%; with left atrial myocardium (setting [4]) it was 66%; in the assay with left atrial myocardium (setting [5]), 12%. Also, the activation at 10 µM in assay [3] stood at 103%. Besides, the inhibition at 10 µM in assay [2] was 48%; in the assay on left atrial myocardium, 39%.

On to `O=c1c2ccccc2c(Cc2ccc(F)cc2)nn1C1CN2CCC1CC2` (centres unmarked) [4-F-Phenyl 3-Chinuclidyl], for which the values for the median effective dose (ED50) (in assay [1]; in the assay on inflammation pain) were 4.6 mg/kg and 1.5 mg/kg, respectively.

As for `CN1CCCC(n2nc(Cc3ccc(Cl)cc3)c3ccccc3c2=O)CC1` (centres unmarked) [Azelastine], the activation at 10 µM in the assay on right anterior free wall amounted to 29%; in assay [2] (setting [4]), 9%; in assay [2] (setting [5]), 22%; with left atrial myocardium (setting [6]), 40%; with left atrial myocardium (setting [4]), 12%; in the assay with left atrial myocardium (setting [5]), 25%. The activation at 10 µM in assay [3] came out at 50%.

In the case of `CN1[C@@H]2CC[C@H]1C[C@@H](OC(=O)c1c[nH]c3ccccc13)C2` [ICS-205930], the activation at 10 µM in the assay on right anterior free wall is 51%; in assay [2] (setting [4]), 21%; in assay [2] (setting [5]) it was 34%; in the assay with left atrial myocardium (setting [6]) it was 57%; in the assay on left atrial myocardium (setting [4]) it was 26%; in the assay with left atrial myocardium (setting [5]), 51%. The activation at 10 µM in assay [3] worked out at 111%. For the same compound, the inhibition at 10 µM in assay [2] is 29%; in the assay on left atrial myocardium, 33%.

As to `O=c1c2ccccc2c(Cc2ccccc2)nn1C1CN2CCC1CC2` (centres unmarked) [Phenyl 3-Chinuclidyl], the ED50 in assay [1] is 3 mg/kg; in the assay on inflammation pain, 1.5 mg/kg.
